This is an account of results in the Kinase Knowledgebase extract (Sharma et al. 2016).

The structures appear in SMILES notation. pIC50: −log10 of the molar value. A value given as a limit tells only on which side of the number the result lay.

The target of the experiment is PIK3CD (Human) (UniProt O00329). The experiment can be described thus: Assessment of PIK3CD Kinase Activity (Scintillation Proximity Assay). A general note: SPA uses beads or plates that emit light when radiolabelled molecules are held near them.
PIK3CD (Human), sequence (O00329 whole entry, looked up): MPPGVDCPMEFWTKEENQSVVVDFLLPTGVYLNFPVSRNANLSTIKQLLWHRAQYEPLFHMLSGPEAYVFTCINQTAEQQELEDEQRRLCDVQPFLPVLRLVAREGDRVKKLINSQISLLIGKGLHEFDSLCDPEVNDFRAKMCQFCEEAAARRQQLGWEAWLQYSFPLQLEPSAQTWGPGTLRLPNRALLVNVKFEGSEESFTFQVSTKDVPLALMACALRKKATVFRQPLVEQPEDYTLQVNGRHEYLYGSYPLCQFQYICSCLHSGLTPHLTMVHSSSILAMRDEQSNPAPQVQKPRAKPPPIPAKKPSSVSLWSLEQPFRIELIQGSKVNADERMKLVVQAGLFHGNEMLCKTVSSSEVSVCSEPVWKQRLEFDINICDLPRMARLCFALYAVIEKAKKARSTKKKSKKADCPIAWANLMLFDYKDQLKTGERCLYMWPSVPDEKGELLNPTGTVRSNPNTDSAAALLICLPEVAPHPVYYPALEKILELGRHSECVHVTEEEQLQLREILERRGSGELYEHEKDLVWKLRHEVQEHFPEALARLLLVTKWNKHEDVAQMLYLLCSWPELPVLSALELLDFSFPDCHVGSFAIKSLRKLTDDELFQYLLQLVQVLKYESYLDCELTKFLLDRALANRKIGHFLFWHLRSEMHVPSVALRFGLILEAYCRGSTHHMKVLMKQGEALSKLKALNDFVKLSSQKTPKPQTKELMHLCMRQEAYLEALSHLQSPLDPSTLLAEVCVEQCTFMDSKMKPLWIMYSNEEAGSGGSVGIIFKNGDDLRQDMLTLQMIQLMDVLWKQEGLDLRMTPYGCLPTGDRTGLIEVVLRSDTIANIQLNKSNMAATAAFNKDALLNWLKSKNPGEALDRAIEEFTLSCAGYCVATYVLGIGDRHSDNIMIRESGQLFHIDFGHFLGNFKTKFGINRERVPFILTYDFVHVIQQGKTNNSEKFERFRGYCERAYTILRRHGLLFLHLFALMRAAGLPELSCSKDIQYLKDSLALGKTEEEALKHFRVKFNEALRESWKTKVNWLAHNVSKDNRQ
Usually pIC50 stands for −log10 of the IC50, conventionally taken in molar units. Higher therefore signals a low IC50. As for `CCOc1c(C(C)n2nc(CF)c3c(N)ncnc32)cc(Cl)c(C)c1-c1ccc(C(=O)N(C)C)nc1` (stereo not given), the negative-log IC50 (pIC50) was ≥ 8.00.
The result for `COc1c(C(C)n2nc(C)c3c(N)ncnc32)cc(Cl)c(C)c1C1CN(CC(C)C#N)C1` (stereo not given) reads ≥ 8.00; that for `COc1c(C(C)n2nc(C)c3c(N)ncnc32)cc(Cl)c(Cl)c1C1CN(C(C)C)C1` (stereo not given), ≥ 8.00; that for `CCOc1c(C(C)n2nc(C)c3c(N)ncnc32)cc(Cl)c(C#N)c1C1CN(C(=O)C(C)C)C1` (stereo not given), ≥ 8.00.
The compound `CCOc1c(C(C)n2nc(CN(C)C)c3c(N)ncnc32)cc(Cl)c(C)c1-c1ccc(C(=O)N(C)C)nc1` (stereo not given) showed a pIC50 of 6.70 to 7.30.
Turning to `CCNC(=O)N1CC(c2c(C#N)c(Cl)cc(C(C)n3nc(C)c4c(N)ncnc43)c2OCC)C1` (stereo not given), the pIC50 was ≥ 8.00.
Turning to `CCOc1c(C(C)n2nc(C#C[C@@H](C)O)c3c(N)ncnc32)cc(Cl)c(C)c1-c1ccc(C(=O)N(C)C)nc1` (stereo not given in full), the pIC50 was ≥ 8.00.
Turning to `CCOc1c(C(C)n2nc(C(F)F)c3c(N)ncnc32)cc(Cl)c(C)c1-c1ccc(C(=O)N(C)C)nc1` (stereo not given), the negative-log IC50 (pIC50) is ≥ 8.00.
On to `CCN1CC(c2c(Cl)c(Cl)cc(C(C)n3nc(C)c4c(N)ncnc43)c2OC)C1` (stereo not given), for which the negative-log IC50 (pIC50) is ≥ 8.00.
Consider `COc1c(C(C)n2nc(C)c3c(N)ncnc32)cc(Cl)c(F)c1C1CN(C)C1` (stereo not given), for which the negative logarithm of the IC50 (pIC50) is ≥ 8.00.
For `CCOc1c(C(C)n2nc(-c3ccc(C(=O)N(C)C)nc3)c3c(N)ncnc32)cc(Cl)c(C)c1-c1ccc(C(=O)N(C)C)nc1` (stereo not given), the negative-log IC50 (pIC50) is 7.30 to 8.00.
For `COc1c(C(C)n2nc(C)c3c(N)ncnc32)cc(Cl)c(C)c1C1CN(C(=O)c2cnoc2C)C1` (stereo not given), the negative-log IC50 (pIC50) is ≥ 8.00.
Take `COc1c(C(C)n2nc(C)c3c(N)ncnc32)cc(Cl)c(C#N)c1C1CN(CCO)C1` (stereo not given): the pIC50 was ≥ 8.00.
In the case of `COc1c(C(C)n2nc(C)c3c(N)ncnc32)cc(C#N)c(C)c1-c1ccnc(C(=O)N(C)CCO)c1` (stereo not given) it was 7.30 to 8.00; in that of `COc1c(C(C)n2nc(C)c3c(N)ncnc32)cc(Cl)c(F)c1C1CN(C[C@@H](C)O)C1` (stereo not given in full), ≥ 8.00.
With `CNC(=O)c1ccc(-c2c(C)c(Cl)cc(C(C)n3nc(C)c4c(N)ncnc43)c2OC)cn1` (stereo not given), the negative logarithm of the IC50 (pIC50) was ≥ 8.00.
`COc1c(C(C)n2nc(C)c3c(N)ncnc32)cc(Cl)c(C)c1C1CN(C(=O)c2cnn(C)c2)C1` (stereo not given): the negative-log IC50 (pIC50) was ≥ 8.00.
`CNC(=O)[C@@H](C)N1CC(c2c(C)c(Cl)cc(C(C)n3nc(C)c4c(N)ncnc43)c2OC)C1` (stereo not given in full): the pIC50 was ≥ 8.00.
Turning to `CCOc1c(C(C)n2nc(C)c3c(N)ncnc32)cc(Cl)c(C#N)c1C1CN(C(=O)N(C)C)C1` (stereo not given), the pIC50 is ≥ 8.00.
In the case of `CCC(C)N1CC(c2c(C)c(Cl)cc(C(C)n3nc(C)c4c(N)ncnc43)c2OC)C1` (stereo not given), the pIC50 is ≥ 8.00.
In the case of `CCOc1c(C(C)n2nc(C)c3c(N)ncnc32)cc(Cl)c(C#N)c1C1CN(C(C)C)C1` (stereo not given), the pIC50 is ≥ 8.00.
The result for `COc1c(C(C)n2nc(C)c3c(N)ncnc32)cc(Cl)c(C)c1-c1ccc(OCCO)nc1` (stereo not given) reads ≥ 8.00; that for `CCOc1c(C(C)n2nc(C)c3c(N)ncnc32)cc(C)c(C#N)c1C1CN(C(=O)C(C)(C)O)C1` (stereo not given), ≥ 8.00.
In the case of `CCOc1c(C(C)n2nc(C)c3c(N)ncnc32)cc(Cl)c(C#N)c1C1CN(CC2CCOCC2)C1` (stereo not given) it was ≥ 8.00; in that of `CCOC(=O)N1CC(c2c(C#N)c(Cl)cc(C(C)n3nc(C)c4c(N)ncnc43)c2OCC)C1` (stereo not given), ≥ 8.00; in that of `CCOc1c(C(C)n2nc(-c3ccc(C(=O)NC)nc3)c3c(N)ncnc32)cc(Cl)c(C)c1-c1ccc(C(=O)N(C)C)nc1` (stereo not given), ≥ 8.00.
Take `COc1c(C(C)n2nc(C(F)F)c3c(N)ncnc32)cc(Cl)c(F)c1C1CN(C(C)C)C1` (stereo not given): the negative logarithm of the IC50 (pIC50) was ≥ 8.00.
In the case of `COc1c(C(C)n2nc(C(F)F)c3c(N)ncnc32)cc(C#N)c(C)c1C1CN(C(C)C)C1` (stereo not given) it was ≥ 8.00; in that of `CCOc1c(C(C)n2nc(C)c3c(N)ncnc32)cc(Cl)c(C)c1-c1ccc(C(=O)N(C)C)cn1` (stereo not given), ≥ 8.00; in that of `CCOc1c(C(C)n2nc(C)c3c(N)ncnc32)cc(Cl)c(C#N)c1C1CN(CC2CC2)C1` (stereo not given), ≥ 8.00.
In the case of `CCOc1c(C(C)n2nc(C)c3c(N)ncnc32)cc(Cl)c(C#N)c1C1CN(CC(F)(F)F)C1` (stereo not given) it was ≥ 8.00.
The result for `CCOC(=O)N1CC(c2c(C#N)c(Cl)cc(C(C)n3nc(C)c4c(N)ncnc43)c2OC)C1` (stereo not given) reads ≥ 8.00; that for `CCOc1c(C(C)n2nc(C)c3c(N)ncnc32)cc(Cl)c(F)c1C1CN(CC(N)=O)C1` (stereo not given), ≥ 8.00; that for `COc1c(C(C)n2nc(C)c3c(N)ncnc32)cc(Cl)c(C)c1C1CN(CC(N)=O)C1` (stereo not given), ≥ 8.00.
With `CCOc1c(C(C)n2nc(C)c3c(N)ncnc32)cc(Cl)c(C#N)c1N1CC(C#N)C1` (stereo not given), the pIC50 was ≥ 8.00.
In the case of `CCOc1c(C(C)n2nc(C)c3c(N)ncnc32)cc(Cl)c(C)c1-c1cnn(CC(=O)N(C)C)c1` (stereo not given) it was ≥ 8.00.
With `COc1c(C(C)n2nc(C)c3c(N)ncnc32)cc(Cl)c(C)c1-c1cncc(C(=O)N(C)CCO)c1` (stereo not given), the pIC50 was ≥ 8.00.
With `CNC(=O)CCc1c(C)c(Cl)cc(C(C)n2nc(C)c3c(N)ncnc32)c1OC` (stereo not given), the negative logarithm of the IC50 (pIC50) was ≥ 8.00.
On to `COc1c(C(C)n2nc(C)c3c(N)ncnc32)cc(Cl)c(C)c1C1CN(C(=O)C(C)(C)O)C1` (stereo not given), for which the pIC50 was ≥ 8.00.
Turning to `COc1c(C(C)n2nc(C)c3c(N)ncnc32)cc(Cl)c(C)c1C1CN(C2CCOCC2)C1` (stereo not given), the pIC50 is ≥ 8.00.
